Test systems include OVCAR-8 ovarian; SK-OV-3 ovarian; HCC-2998 colon; COLO 205 colon; NCI-H460 lung; K-562 leukemia; HT29 colon; DU-145 prostate; A498 renal; CAKI-1 renal; OVCAR-5 ovarian; TK-10 renal; U251 CNS; HOP-92 NSCLC; NCI/ADR-RES ovarian; HL-60(TB) leukemia; CCRF-CEM leukemia; HCT-15 colon.
Assay in all cases: inhibition of tumour cell growth, NCI panel, 48 h

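Step 1: Grow cells in 96-well plates. Step 2: Expose to compound for 48 hours at 5 concentrations. Step 3: Interpolate endpoints linearly; if unreached, use highest concentration. At the TGI there is no net growth.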

For `c1ccc(N=c2sc3ccccc3sc2=Nc2ccccc2)cc1`, the TGI in the assay with OVCAR-8 ovarian is 4.08 µM; in the assay with SK-OV-3 ovarian, 11.8 µM; with HCC-2998 colon, 3.24 µM; with COLO 205 colon it was 3.69 µM; with NCI-H460 lung, 3.79 µM; in the assay on K-562 leukemia, above 100 µM. In addition, the TGI in the assay with HT29 colon is 3.86 µM; in the assay with DU-145 prostate, 17.1 µM; in the assay on A498 renal it was 5.65 µM; in the assay with CAKI-1 renal it was 4.59 µM; in the assay with OVCAR-5 ovarian, 3.83 µM; in the assay on TK-10 renal, 12.9 µM. Further, the TGI with U251 CNS is 3.3 µM; with HOP-92 NSCLC, 9.93 µM; in the assay with NCI/ADR-RES ovarian, 7.03 µM; with HL-60(TB) leukemia, above 100 µM; with CCRF-CEM leukemia it was above 100 µM; in the assay on HCT-15 colon, 3.57 µM.

Regarding `C/C=C/C(C#N)(Cc1ccccc1)OP1(=O)OC(c2ccccc2)C(C)N1C` (centres undefined), the TGI in the assay with OVCAR-8 ovarian, in the assay with SK-OV-3 ovarian, in the assay on HCC-2998 colon, in the assay with COLO 205 colon, in the assay with NCI-H460 lung and in the assay with K-562 leukemia was above 100 µM in each case. In addition, the TGI in the assay with HT29 colon, with DU-145 prostate, in the assay with A498 renal, with CAKI-1 renal, with OVCAR-5 ovarian and in the assay on TK-10 renal was above 100 µM each time. The TGI with U251 CNS is above 100 µM; in the assay with HOP-92 NSCLC, above 100 µM; in the assay with NCI/ADR-RES ovarian, above 100 µM; with HL-60(TB) leukemia, 41.9 µM; in the assay on CCRF-CEM leukemia it was 41.2 µM; with HCT-15 colon, above 100 µM.

With `Cc1c2cccc-2ccc2c1[nH]c1ccc(Br)cc12`, the TGI with OVCAR-8 ovarian was 22.4 µM; in the assay on SK-OV-3 ovarian it was 28.7 µM; with HCC-2998 colon, 49.3 µM; with COLO 205 colon it was 4.33 µM; in the assay on NCI-H460 lung it was above 100 µM; in the assay on K-562 leukemia, 11.8 µM. Moreover, the TGI in the assay on HT29 colon was determined as 27.9 µM; in the assay on DU-145 prostate, 22.9 µM; with A498 renal, 37.9 µM; with CAKI-1 renal, 24.9 µM; in the assay on OVCAR-5 ovarian, 16.7 µM; in the assay on TK-10 renal, 32.2 µM. For the same molecule, the TGI with U251 CNS was 12.1 µM; with HOP-92 NSCLC it was 9.94 µM; in the assay on NCI/ADR-RES ovarian, 38.4 µM; in the assay on HL-60(TB) leukemia, above 100 µM; in the assay on CCRF-CEM leukemia, 90.9 µM; with HCT-15 colon it was 14 µM.

For `COC(=O)n1c(=O)n(-c2ccccc2)c(=O)n1C(=O)Nc1ccccc1`, the TGI in the assay on OVCAR-8 ovarian, with SK-OV-3 ovarian, with HCC-2998 colon, in the assay on COLO 205 colon, in the assay on NCI-H460 lung and in the assay with K-562 leukemia was above 100 µM throughout. The TGI with HT29 colon, with DU-145 prostate, in the assay with A498 renal, with CAKI-1 renal, with OVCAR-5 ovarian and with TK-10 renal was above 100 µM throughout. Moreover, the TGI in the assay on U251 CNS, in the assay on HOP-92 NSCLC, with NCI/ADR-RES ovarian, in the assay on HL-60(TB) leukemia, in the assay on CCRF-CEM leukemia and with HCT-15 colon was above 100 µM each time.

For the molecule `S=C(N/N=C(/c1ccccc1)c1ccccn1)Nc1ccc(Cl)cc1`, the TGI stood at 3.19 µM in the assay with OVCAR-8 ovarian; 6.81 µM in the assay on SK-OV-3 ovarian; 10.9 µM in the assay with HCC-2998 colon; 18.2 µM in the assay on COLO 205 colon; 5.53 µM in the assay with NCI-H460 lung; 0.581 µM with K-562 leukemia. The TGI with HT29 colon is above 44.3 µM; in the assay with DU-145 prostate it was 11.6 µM; in the assay with A498 renal, 9.4 µM; in the assay on CAKI-1 renal, 9.37 µM; with OVCAR-5 ovarian it was 6.2 µM; in the assay on TK-10 renal, 8.3 µM. Besides, the TGI worked out at 12.4 µM in the assay with U251 CNS; 11.9 µM in the assay with HOP-92 NSCLC; 14.3 µM in the assay on NCI/ADR-RES ovarian; 0.543 µM in the assay on HL-60(TB) leukemia; 2.26 µM with CCRF-CEM leukemia; 11.2 µM in the assay with HCT-15 colon.

As to `CC[C@H](C)C1=C(O)[N@+]2([O-])Oc3ccc(-c4c(O)c(O)c(-c5ccc(OC(C)=O)cc5)c(OC(C)=O)c4OC(C)=O)cc3O[C@]2([C@@H](C)CC)C(=O)N1O`, the TGI with OVCAR-8 ovarian was above 50 µM; in the assay on SK-OV-3 ovarian it was above 50 µM; in the assay with HCC-2998 colon, 24.5 µM; in the assay on COLO 205 colon, above 50 µM; in the assay with NCI-H460 lung it was above 50 µM; in the assay on K-562 leukemia it was 31.5 µM. The TGI in the assay with HT29 colon, in the assay with DU-145 prostate, with A498 renal, in the assay on CAKI-1 renal, in the assay with OVCAR-5 ovarian and in the assay with TK-10 renal was above 50 µM each time. Also, the TGI is above 50 µM with U251 CNS; 45.8 µM in the assay with HOP-92 NSCLC; above 50 µM with NCI/ADR-RES ovarian; above 50 µM with HL-60(TB) leukemia; 23.8 µM in the assay with CCRF-CEM leukemia; above 50 µM in the assay on HCT-15 colon.

For the molecule `Cc1nc(-c2cc3c(ccc4ccccc43)oc2=O)cc2c1c(=O)oc1ccc3ccccc3c12`, the TGI in the assay on OVCAR-8 ovarian, in the assay with SK-OV-3 ovarian, in the assay on HCC-2998 colon, in the assay on COLO 205 colon, in the assay with NCI-H460 lung and with K-562 leukemia was above 100 µM throughout. Further, the TGI with HT29 colon, in the assay with DU-145 prostate, in the assay with A498 renal, with CAKI-1 renal, in the assay on OVCAR-5 ovarian and with TK-10 renal was above 100 µM in each case. Further, the TGI in the assay on U251 CNS, with HOP-92 NSCLC, in the assay on NCI/ADR-RES ovarian, in the assay on HL-60(TB) leukemia, in the assay on CCRF-CEM leukemia and with HCT-15 colon was above 100 µM each time.

With `CC(C)(C)CC(C)(C)N=C(N)NO`, the TGI with OVCAR-8 ovarian was above 100 µM; in the assay with SK-OV-3 ovarian, 99.1 µM; in the assay with HCC-2998 colon it was above 100 µM; in the assay on COLO 205 colon it was above 100 µM; in the assay with NCI-H460 lung it was above 100 µM; in the assay on K-562 leukemia it was above 100 µM. Moreover, the TGI is above 100 µM in the assay with HT29 colon; above 100 µM with DU-145 prostate; 97.6 µM in the assay with A498 renal; above 100 µM in the assay with CAKI-1 renal; above 100 µM with OVCAR-5 ovarian; above 100 µM in the assay with TK-10 renal. Besides, the TGI in the assay with U251 CNS, in the assay with HOP-92 NSCLC, in the assay with NCI/ADR-RES ovarian, with HL-60(TB) leukemia, in the assay on CCRF-CEM leukemia and in the assay with HCT-15 colon was above 100 µM each time.

The values above are taken from PubChem BioAssay (NCI).
